Source: patent US4276304A, “Novel benzylalcohol derivative and process for preparing the same” (priority 1979, dated 1981)
Several values for one entry are separate records, joined by “and”; a condition that tells them apart may be missing. Equal entries are not always repeated. Where two headings read alike, the source gives them in different places.

How the values were obtained:
blood sugar [1] = assay: Blood sugar-lowering activity (oral test compound, subcutaneous glucose load); format: in vivo, male ddY mice; conditions: for minimal effective dose: Mus musculus, 1 h, read-out: Minimum effective dose (blood sugar-lowering activity)
Procedure: For example, when the blood sugar-lowering activity was estimated by orally administering a test compound to mice immediately before subcutaneous injection of glucose, said activity of the compound of the present invention was about 100 to about 1000 times stronger than that of Phenformin (Chemical name: 1-phenethylbiguanide).
An aqueous solution or suspension (10 ml/kg) of a test compound was administered orally through a stomach tube to a group of male ddY mice (each group consisting of five mice) which fasted for 20 hours. A physiological saline solution (10 ml/kg) containing 10 w/v % glucose was injected subcutaneously to the mice immediately after the oral administration of the test compound. One hour after the injection of glucose, 0.02 ml of blood was collected from the tail vein of the mice. Then, the amount of glucose in the blood sample was estimated by the glucose oxidase method (H. U. Bergmeyer & E. Bernt, "Methods of Enzymatic Analysis", H. U. Bergmeyer (Ed.), Acadamic Press, New York & London, 1963, page 123). The blood sugar-lowering activity of the test compound was calculated by the following formula: [formula] Further, on the basis of the potency ratio calculated above, the activity of the test compound was expressed as follows: […]

blood platelets = assay: Preventive effect upon the aggregation of blood platelets (collagen-induced, platelet-rich plasma); format: cell-based, male Sprague-Dawley rats; conditions: for inhibition at 100 µg/mL: Rattus norvegicus, Platelet
blood sugar [2] = conditions: U.S. Pat. Nos. 4,032,575 and 4,131,686, Japanese Patent Publication No. 71428/1977; cited from earlier work
mice = assay: Acute toxicity / maximum tolerance dose (intraperitoneal injection); format: in vivo; conditions: 48 hours after intraperitoneal injection
Procedure: For example, the maximum tolerance dose (M.T.D.) of α-[(α,α-dimethyl-3,4-dimethoxyphenethylamino)methyl]-2-benzyloxybenzylalcohol oxalate and α-[(α,α-dimethyl-3,4-dimethoxyphenethylamino)methyl]-2-chlorobenzylalcohol hydrochloride which was estimated 48 hours after intraperitoneal injection thereof to a group of 4 mice was not less than 100 mg/kg.

[3] = 100 μg/ml, graded against acetylsalicylic acid 100 μg/ml
[4] = read-out: Inhibition (%) against platelet aggregation, A* (test compound group)
[5] = test compound 100 μg/ml, collagen, rat PRP

| Compound | Platelet aggregation inhibiting activity (blood platelets; [3]) | Minimum effective dose (blood sugar-lowering activity) (blood sugar [1]; oral, mice) [mg/kg] | Inhibition (%) against platelet aggregation, A* (test compound group) (blood platelets; [5]) [%] | further results |
| --- | --- | --- | --- | --- |
| COc1ccc(CC(C)(C)NCC(O)c2ccccc2Cl)cc1.Cl (stereo not drawn) [Test compound 5, α-[(α,α-dimethyl-4-methoxyphenethylamino)-methyl]-2-chlorobenzylalcohol hydrochloride] |  |  |  | minimal effective dose (blood sugar [1]; po): 0.1 mg/kg |
| CC(=O)Oc1ccccc1C(=O)O [acetylsalicylic acid, reference compound] |  |  |  | Inhibition (%) against platelet aggregation, B** (acetylsalicylic acid group) (blood platelets; acetylsalicylic acid 100 μg/ml, comparison group for the test compound of the same line): 31% and 58% and 50% and 56% and 54% |
| COc1ccc(CC(C)(C)NCC(O)c2ccccc2O)cc1 (centres unmarked) [compound 1] | ++ |  |  | minimal effective dose (blood sugar [1]; po): 0.3 mg/kg; inhibition at 100 µg/mL (blood platelets; [4]): 90% |
| COc1ccc(CC(C)(C)NCC(O)c2ccccc2OCc2ccccc2)cc1 (centres unmarked) [compound 2] |  |  |  | minimal effective dose (blood sugar [1]; oral, mice): 1 mg/kg; inhibition at 100 µg/mL (blood platelets; 100 μg/ml, graded against acetylsalicylic acid 100 μg/ml, read-out: Platelet aggregation inhibiting activity): > 10%; inhibition at 100 µg/mL (blood platelets; test compound 100 μg/ml, collagen, rat PRP, read-out: Inhibition (%) against platelet aggregation, A* (test compound group)): 27% |
| COc1ccc(CC(C)(C)NCC(O)c2ccccc2OC)cc1 (centres unmarked) [compound 3] | ++ |  |  | minimal effective dose (blood sugar [1]; po): 0.1 mg/kg; inhibition at 100 µg/mL (blood platelets; [4]): 80% |
| CCCCOc1ccccc1C(O)CNC(C)(C)Cc1ccc(OC)cc1 (centres unmarked) [compound 4] |  |  |  | minimal effective dose (blood sugar [1]; oral, mice): 0.3 mg/kg |
| COc1ccc(CCNCC(O)c2ccccc2OCc2ccccc2)cc1OC (stereo not drawn) [α-[(3,4-dimethoxyphenethylamino)methyl]-2-benzyloxybenzylalcohol] |  |  |  | blood sugar-lowering activity (in words) (blood sugar [2]): show a blood sugar-lowering activity |
| COc1ccc(CCNCC(O)c2ccccc2O)cc1OC (stereo not drawn) [α-[(3,4-dimethoxyphenethylamino)methyl]-2-hydroxybenzylalcohol, reference compound] |  |  |  | blood sugar-lowering activity (in words) (blood sugar [2]): show a blood sugar-lowering activity; preventive effect upon the aggregation of blood platelets (in words) (blood platelets): no substantial preventive effect |
| COc1ccc(CCNCC(O)c2ccccc2OC)cc1OC (stereo not drawn) [α-[(3,4-dimethoxyphenethylamino)methyl]-2-methoxybenzylalcohol, reference compound] |  |  |  | blood sugar-lowering activity (in words) (blood sugar [2]): show a blood sugar-lowering activity; preventive effect upon the aggregation of blood platelets (in words) (blood platelets): no substantial preventive effect |
| α-[(α,α-dimethyl-2,3,4-trimethoxyphenethylamino)methyl]- 2-benzyloxybenzylalcohol 1/2 oxalate [Test compound 12] | ++ | 1.0 | 85 |  |
| α-[(α,α-dimethyl-2,3,4-trimethoxyphenethylamino)methyl]- 2-chlorobenzylalcohol hydrochloride [Test compound 14] | ++ | 0.1 | 93 |  |
| α-[(α,α-dimethyl-2,3,4-trimethoxyphenethylamino)methyl]- 2-hydroxybenzylalcohol 1/2 oxalate [Test compound 11] | ++ | 1.0 | 59 |  |
| α-[(α,α-dimethyl-2,3,4-trimethoxyphenethylamino)methyl]- 2-methoxybenzylalcohol hydrochloride [Test compound 13] | + (not less than 10% inhibition of platelet aggregation but said percentage inhibition was not higher than that of acetylsalicylic acid (100 μg/ml)) | 1.0 | 37 |  |
| α-[(α,α-dimethyl-3,4-dimethoxyphenethylamino)methyl]-2-benzyloxybenzylalcohol oxalate [Test compound 7] | + (not less than 10% inhibition of platelet aggregation but said percentage inhibition was not higher than that of acetylsalicylic acid (100 μg/ml)) | 0.3 | 17 | maximum tolerance dose (M.T.D.) (mice): not less than 100 mg/kg |
| α-[(α,α-dimethyl-3,4-dimethoxyphenethylamino)methyl]-2-chlorobenzylalcohol hydrochloride [Test compound 10] | ++ | 1.0 | 84 | maximum tolerance dose (M.T.D.) (mice): not less than 100 mg/kg |
| α-[(α,α-dimethyl-3,4-dimethoxyphenethylamino)methyl]-2-hydroxybenzylalcohol 1/2 oxalate [Test compound 6] | ++ | 1.0 |  |  |
| α-[(α,α-dimethyl-3,4-dimethoxyphenethylamino)methyl]-2-methoxybenzylalcohol hydrochloride [Test compound 8] | ++ | 1.0 | 57 |  |
| α-[(α,α-dimethyl-3,4-dimethoxyphenethylamino)methyl]-2-n-butoxybenzylalcohol hydrochloride [Test compound 9] | + (not less than 10% inhibition of platelet aggregation but said percentage inhibition was not higher than that of acetylsalicylic acid (100 μg/ml)) | 1.0 | 33 |  |
| α-[(α,α-dimethyl-3,4-methylenedioxyphenethylamino)methyl]-2-benzyloxybenzylalcohol 1/2 oxalate [Test compound 16] | + (not less than 10% inhibition of platelet aggregation but said percentage inhibition was not higher than that of acetylsalicylic acid (100 μg/ml)) | 0.3 | 29 |  |
| α-[(α,α-dimethyl-3,4-methylenedioxyphenethylamino)methyl]-2-hydroxybenzylalcohol 1/2 oxalate [Test compound 15] |  | 5.0 |  |  |
| α-[(α,α-dimethyl-3,4-methylenedioxyphenethylamino)methyl]-2-methoxybenzylalcohol 1/2 succinate [Test compound 17] |  | 2.0 |  |  |
| α-[(α,α-dimethyl-4-methoxyphenethylamino)methyl]-2-benzyloxybenzylalcohol hydrochloride [Example 7] | ++ | 0.3 | 90 |  |
| α-[(α,α-dimethyl-4-methoxyphenethylamino)methyl]-2-hydroxybenzylalcohol 1/2 oxalate [Test compound 1] | + (not less than 10% inhibition of platelet aggregation but said percentage inhibition was not higher than that of acetylsalicylic acid (100 μg/ml)) | 0.3 | 22 |  |
| α-[(α,α-dimethyl-4-methoxyphenethylamino)methyl]-2-methoxybenzylalcohol 1/2 oxalate [Test compound 3] | + (not less than 10% inhibition of platelet aggregation but said percentage inhibition was not higher than that of acetylsalicylic acid (100 μg/ml)) | 1.0 | 57 |  |
| α-[(α,α-dimethyl-4-methoxyphenethylamino)methyl]-2-n-butoxybenzylalcohol hydrochloride [Test compound 4] | + (not less than 10% inhibition of platelet aggregation but said percentage inhibition was not higher than that of acetylsalicylic acid (100 μg/ml)) | 0.1 | 31 |  |
